Here are results for ten compounds from patent US10766890B2, “Hepatitis B core protein modulators” (Assembly Biosciences, Inc., priority 2015, dated 2020).

One data set deals with AD38 cells. Kind of data set: Viability of AD38 cells, Promega CellTiter-Glo. In kind it is cell-based. The following applies: 10 μM compound, 6 days, CellTiter-Glo luminescence, controls being 100%. As to the method:
(§1) Example 63: Assay Measuring Activity of Compounds on Viral Production in and on Viability of AD38 Cells
(§2) AD38 cells were then re-suspended with 10 mL of Treatment Medium and counted. Wells of a collagen coated 96-well NUNC microtiter plate were seeded at 50,000/well in 180 μL of Treatment Medium, and 20 μL of in treatment media with either 10% DMSO (Control) or a 10× solution of compound in 10% DMSO was added. Plates were incubated for 6 days at 37° C.
At the end of compound treatment period cell viability was assessed using a Promega CellTiter-Glo protocol. All supernatant was removed the previously treated 96-well microtiter plate, and 50 μL Tetracycline-free treatment medium (DMEM/F12 (1:1), 1×Pen/step (cat#: 30-002-CL, Mediatech, Inc), with 2% FBS, Tet-system approved (cat#: 631106, Clontech), and 1% DMSO was added back to each well. Another 50 μL of CellTiter-Glo reagent solution (Promega, G7573) was then added at room temperature and the contents mixed for 2 minutes on an orbital shaker to induce cell lysis. This was followed by incubation at room temperature for 10 minutes to stabilize the luminescent signal. The luminescence was recorded for 0.2 seconds per well on a Tecan multimode platereader (Infinite M1000 pro). The luminescent signal from each well was normalized against that of untreated (DMSO) control wells. All results in Table 3 were reported with percent viability (with controls being 100%).
Background: ATP-based viability assays read luminescence as a measure of living cells.

In a further data set the test system is HBV. Kind of data set: Viral load production in AD38 cells, quantitative PCR of the core sequence in supernatant. It is filed as cell-based. The note with it: Hepatitis B virus, 144 h, 10 μM compound, 6 days at 37° C., supernatant qPCR vs DMSO control, read-out: AD38 Viral Load (%) (VL with cmpd/VL in DMSO control) at 10 μM. As to the method: as §1, §2
Viral load production was assayed by quantitative PCR of the core sequence. […] The PCR mixture was incubated at 45° C. for 5 minutes, then 95° C. for 10 min, followed by 40 cycles of 10 seconds at 95° C. and 20 seconds at 60° C. Viral load was quantitated against known standards by using ViiA™ 7 Software. Viral load in the supernatant from wells with treated cells were compared against viral load in supernatant from DMSO control wells (≥3 per plate).
(In general: Quantitative PCR measures a nucleic acid by following its amplification.)

With `Nc1ncc(-c2ccc(CNC(=O)c3ccc4c(c3)NC(=O)c3ccccc3S4(=O)=O)cc2)cn1` [Compound 777], in the data set on AD38 cells, the “AD38 Viability Normalized Result (cmpd/DMSO %) at 10 μM” value is 99%. In addition, in the data set with HBV, the activity at 10 µM amounted to 11.7%.
In the same order, the values of `O=C(NCc1cccc(-n2nccn2)c1)c1ccc2c(c1)NC(=O)c1ccccc1S2(=O)=O` [Compound 568] are 101% and 3%.
Turning to `O=C(NCc1ccc(-c2ccc3[nH]ccc3c2)cc1)c1ccc2c(c1)NC(=O)c1ccccc1O2` [Compound 730], in the data set with AD38 cells, the “AD38 Viability Normalized Result (cmpd/DMSO %) at 10 μM” value is 101%. In the data set on HBV, the activity at 10 µM stood at 24.2%.
Taken in the same sequence, the figures for `COc1ccc(Cc2cccc(CNC(=O)c3ccc4c(c3)NC(=O)c3ccccc3O4)c2)cc1` [Compound 741-A] were 89% and 42.4%.
`O=C(NCc1cccc(Sc2ccc(O)cc2)c1)c1ccc2c(c1)NC(=O)c1ccccc1O2` [Compound 743, N-(3-((4-hydroxyphenyl)thio)benzyl)-11-oxo-10,11-dihydrodibenzo[b,f][1,4]oxazepine-8-carboxamide]: in the data set on AD38 cells, the “AD38 Viability Normalized Result (cmpd/DMSO %) at 10 μM” value is reported as 102%. For the same compound, in the data set on HBV, the activity at 10 µM was found to be 6.8%.
Taken in the same sequence, the figures for `COc1ccc(Sc2cccc(CNC(=O)c3ccc4c(c3)NC(=O)c3ccccc3O4)c2)cc1` [Compound 743-A] were 91% and 22.7%.
Regarding `O=C(NCc1ccc(-c2ccc(O)nc2)cc1)c1ccc2c(c1)NC(=O)c1ccccc1S2(=O)=O` [Compound 776, N-(4-(6-hydroxypyridin-3-yl)benzyl)-11-oxo-10,11-dihydrodibenzo[b,f][1,4]thiazepine-8-carboxamide 5,5-dioxide], in the data set on AD38 cells, the “AD38 Viability Normalized Result (cmpd/DMSO %) at 10 μM” value is 100%. The activity at 10 µM in the data set with HBV was found to be 63.1%.
Taken in the same sequence, the figures for `COc1cccc(Cc2cccc(CNC(=O)c3ccc4c(c3)NC(=O)c3ccccc3S4(=O)=O)c2)c1` [Compound 808-A, N-(3-(3-methoxybenzyl)benzyl)-11-oxo-10,11-dihydrodibenzo[b,f][1,4]thiazepine-8-carboxamide 5,5-dioxide] were 84% and 1.5%.
Consider `CCC(CNC(=O)c1ccc2c(c1)NC(=O)c1ccccc1S2(=O)=O)c1ccccc1` (centres unmarked) [Compound 530], for which, in the data set with AD38 cells, the “AD38 Viability Normalized Result (cmpd/DMSO %) at 10 μM” value stood at 92%. Besides, in the data set with HBV, the activity at 10 µM came out at 5%.
In the same order, the values of `O=C(NCc1ccc(-c2ccc(O)cc2Cl)cc1)c1ccc2c(c1)NC(=O)c1ccccc1O2` [Compound 722] are 29% and 8.8%.
